Data reported in ChEMBL document CHEMBL1201862, “PubChem BioAssay data set” (2004).
The source made the active and inactive calls. Rule as the data show it, for most assays here: actives have a measured IC50 and inactives only a lower limit.

How the values were obtained:
[1] = target: T1, Tyrosyl-DNA phosphodiesterase 2 (Homo sapiens, UniProt O95551); assay: potency against TDP2 phosphodiesterase activity – biochemical, epi absorbance, IC50, dose response (AID 743297)
T1 sequence (O95551 whole entry): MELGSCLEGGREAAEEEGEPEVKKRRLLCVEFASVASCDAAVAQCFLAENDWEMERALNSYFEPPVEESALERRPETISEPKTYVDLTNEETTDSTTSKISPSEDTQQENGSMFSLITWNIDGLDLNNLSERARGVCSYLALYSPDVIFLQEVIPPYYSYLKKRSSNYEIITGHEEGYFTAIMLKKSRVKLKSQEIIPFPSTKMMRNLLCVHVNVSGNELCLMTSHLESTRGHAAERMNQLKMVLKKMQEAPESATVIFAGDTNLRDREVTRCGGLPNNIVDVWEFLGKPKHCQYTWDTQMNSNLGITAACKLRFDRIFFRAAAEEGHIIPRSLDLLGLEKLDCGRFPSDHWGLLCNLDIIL

[2] = target: T2, Sentrin-specific protease 6 (Homo sapiens, UniProt Q9GZR1); type: functional;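 also: Luminescence-based dose-response confirmatory assay of SENP6 inhibition, following up an ultra-high-throughput screen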
T2 sequence (Q9GZR1 whole entry): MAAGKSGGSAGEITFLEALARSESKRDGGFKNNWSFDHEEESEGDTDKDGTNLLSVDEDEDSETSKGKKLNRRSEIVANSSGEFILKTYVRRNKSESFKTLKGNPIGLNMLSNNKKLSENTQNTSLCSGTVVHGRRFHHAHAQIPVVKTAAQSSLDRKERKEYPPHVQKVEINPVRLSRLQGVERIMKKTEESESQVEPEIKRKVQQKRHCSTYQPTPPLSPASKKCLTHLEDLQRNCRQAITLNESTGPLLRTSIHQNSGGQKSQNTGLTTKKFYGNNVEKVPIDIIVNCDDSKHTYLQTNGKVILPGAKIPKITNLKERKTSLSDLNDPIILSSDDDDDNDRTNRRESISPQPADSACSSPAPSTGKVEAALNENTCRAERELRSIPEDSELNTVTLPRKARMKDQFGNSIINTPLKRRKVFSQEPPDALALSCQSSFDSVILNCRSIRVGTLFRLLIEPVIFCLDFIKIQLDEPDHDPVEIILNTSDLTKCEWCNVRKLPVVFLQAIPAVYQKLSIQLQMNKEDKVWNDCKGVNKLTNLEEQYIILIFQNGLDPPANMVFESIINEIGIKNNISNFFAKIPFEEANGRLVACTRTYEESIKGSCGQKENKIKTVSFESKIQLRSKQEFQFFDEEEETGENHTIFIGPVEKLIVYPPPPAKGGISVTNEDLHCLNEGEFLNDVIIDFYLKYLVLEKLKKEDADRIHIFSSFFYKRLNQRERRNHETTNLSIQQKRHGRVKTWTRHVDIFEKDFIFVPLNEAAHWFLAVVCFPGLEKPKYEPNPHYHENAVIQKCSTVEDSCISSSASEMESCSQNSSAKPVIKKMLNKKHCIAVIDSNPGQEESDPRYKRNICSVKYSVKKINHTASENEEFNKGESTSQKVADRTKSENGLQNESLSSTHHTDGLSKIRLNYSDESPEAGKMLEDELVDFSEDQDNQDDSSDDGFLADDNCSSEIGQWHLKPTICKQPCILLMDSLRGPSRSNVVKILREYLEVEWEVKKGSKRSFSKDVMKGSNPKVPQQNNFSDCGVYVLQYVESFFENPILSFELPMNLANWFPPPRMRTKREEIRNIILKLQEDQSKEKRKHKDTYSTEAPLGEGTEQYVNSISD

[3] = target: T3, Apoptotic protease-activating factor 1 (Homo sapiens, UniProt O14727); type: functional
T3 sequence (O14727 whole entry): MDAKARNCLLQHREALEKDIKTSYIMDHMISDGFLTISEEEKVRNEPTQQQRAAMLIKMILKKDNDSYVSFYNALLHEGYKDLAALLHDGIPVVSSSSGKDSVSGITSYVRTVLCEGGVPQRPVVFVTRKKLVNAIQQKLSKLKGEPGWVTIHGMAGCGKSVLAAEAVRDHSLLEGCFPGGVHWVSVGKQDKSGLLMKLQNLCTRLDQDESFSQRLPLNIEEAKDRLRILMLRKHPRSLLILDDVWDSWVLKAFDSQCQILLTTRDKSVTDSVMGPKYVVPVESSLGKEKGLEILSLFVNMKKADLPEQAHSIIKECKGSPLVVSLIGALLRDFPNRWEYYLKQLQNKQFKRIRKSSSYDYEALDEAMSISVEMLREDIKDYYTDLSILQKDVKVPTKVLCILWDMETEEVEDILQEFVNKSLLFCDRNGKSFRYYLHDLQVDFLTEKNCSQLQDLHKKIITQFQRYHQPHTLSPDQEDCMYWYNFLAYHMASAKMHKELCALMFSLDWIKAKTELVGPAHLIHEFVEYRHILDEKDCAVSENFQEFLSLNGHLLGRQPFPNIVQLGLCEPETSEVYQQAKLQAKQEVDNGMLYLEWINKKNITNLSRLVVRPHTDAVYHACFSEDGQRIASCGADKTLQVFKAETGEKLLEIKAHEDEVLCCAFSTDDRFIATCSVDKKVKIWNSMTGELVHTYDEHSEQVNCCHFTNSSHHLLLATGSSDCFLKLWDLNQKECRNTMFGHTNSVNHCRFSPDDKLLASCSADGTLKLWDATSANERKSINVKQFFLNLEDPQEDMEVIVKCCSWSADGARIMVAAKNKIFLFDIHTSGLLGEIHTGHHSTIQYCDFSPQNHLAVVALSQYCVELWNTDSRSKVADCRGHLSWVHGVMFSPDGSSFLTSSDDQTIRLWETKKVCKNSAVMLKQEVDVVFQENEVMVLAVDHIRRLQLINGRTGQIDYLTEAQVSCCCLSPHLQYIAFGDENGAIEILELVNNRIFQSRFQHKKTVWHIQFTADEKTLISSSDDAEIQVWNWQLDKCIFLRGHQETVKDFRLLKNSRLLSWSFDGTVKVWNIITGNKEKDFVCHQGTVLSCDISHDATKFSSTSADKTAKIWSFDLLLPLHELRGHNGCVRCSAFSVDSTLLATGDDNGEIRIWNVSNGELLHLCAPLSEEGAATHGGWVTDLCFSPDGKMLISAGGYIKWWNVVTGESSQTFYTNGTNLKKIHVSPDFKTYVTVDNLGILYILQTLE

Compound	IC50 [1]	IC50 [2]	IC50 [3]
COC(=O)c1cccc(-c2ccc(C(c3c(C)n[nH]c3O)c3c(C)n[nH]c3O)o2)c1	> 128 µM (inactive)		
Cc1cc(/C=C2\SC(=S)N(C)C2=O)c(C)n1-c1ccc(O)cc1		4.66 µM (active)	
O=C1/C(=N\c2cccc(O)c2)C(N2CCCCC2)=C(O)c2ccccc21	> 42.8 µM (inactive)		4.03 µM (active)
Cc1ccc(C(=O)NNc2cc(N3CCCC3)nc(N3CCCC3)n2)cc1		0.838 µM (active)	5.08 µM (active)
